According to PMC4175002, “The Design and Synthesis of Potent and Selective Inhibitors of Trypanosoma brucei Glycogen Synthase Kinase 3 for the Treatment of Human African Trypanosomiasis” (Journal of Medicinal Chemistry, 2014):

Experiments:
IKK = assay: Mammalian kinase profiling (DSTT panel); format: biochemical, human; settings: 10 μM; average percentage of remaining activity
Procedure: (§1) To assess the selectivity of the aminopyrazole inhibitors, remaining activity at 10 μM concentration was measured for compounds 4f, 4m, and 4y against a panel of 80 human PKs and for compound 9g against 124 human PKs. […] Compound 4m inhibited only two PKs, namely GSK3β and CDK2, at more than 80%.
(§2) Selected compounds were screened against a panel of mammalian kinases routinely run by the Division of Signal Transduction Therapy (DSTT) at the University of Dundee in duplicate at 10 μM.[32] Enzymes included in the panel and assay conditions are reported in the literature. All biochemical assays are run below the Km^app for the ATP for each enzyme, allowing comparison of inhibition across the panel.

HsGSK3β = HsGSK3β (Homo sapiens, UniProt P49841); assay: Radiometric Flashplate potency assay, HsGSK3β; format: biochemical; settings: ratio of IC50 values
Procedure: For compound potency determinations, a radiometric 96-well Flashplate assay (PerkinElmer) was adopted. Compounds were solubilized in DMSO at a top concentration of 3 mM and serially diluted to achieve 10-point titration of final assay concentrations from 30 μM to 0.3 nM with a final DMSO concentration of 1% (v/v). The reaction mixtures contained 1 μM biotinylated GSP2 substrate, 1 μM ATP, 3.7 KBq/well [γ-33P]-ATP and 2.5 nM TbGSK3 in the TbGSK3 kinase assay buffer. GSK3 inhibitors were screened for selectivity assessment also against HsGSK3β. For HsGSK3 assay, the reaction mixes contained 1 μM biotinylated GSP2 substrate, 2 μM ATP, 7.4 KBq/well [γ-33P]-ATP and 15 nM HsGSK3β in the TbGSK3 kinase assay buffer (25 mM Tris-HCl, pH 7.5, 10 mM MgCl2, 5 mM DTT, 0.02% CHAPS, 2 U/mL heparin). For HsCDK2/cyclin A assay, the reaction mixtures contained 1 mM CDK5 biotinylated peptide substrate (Biotin-C6-PKTPKKAKKL), 1 μM ATP, 7.4 KBq/well [γ-^33P]-ATP and 2 nM HsCDK2/cyclin A in the kinase assay buffer (50 mM Tris-HCl, pH 7.5, 10 mM MgCl2, 2 mM DTT, 100 mM NaCl, 0.2 mM EGTA, 0.02% (v/v) Brij35).
This implies that a difference of >0.3 in pIC50 can be considered statistically significant for this assay.

BRSK2 = target: T1, BRSK2 (Homo sapiens, UniProt Q8IWQ3); assay: Mammalian kinase profiling (DSTT panel); format: biochemical; settings: 10 μM; average percentage of remaining activity
T1 construct: purchased Division of Signal Transduction Therapy (DSTT), University of Dundee
Procedure: as §1, §2

NEK6 = target: T2, NEK6 (Homo sapiens, UniProt Q9HC98); assay: Mammalian kinase profiling (DSTT panel); format: biochemical; settings: 10 μM; average percentage of remaining activity
T2 construct: purchased Division of Signal Transduction Therapy (DSTT), University of Dundee
Procedure: as §1, §2

Src = target: T3, Src (Homo sapiens, UniProt P12931); assay: Mammalian kinase profiling (DSTT panel); format: biochemical; settings: 10 μM; average percentage of remaining activity
T3 construct: purchased Division of Signal Transduction Therapy (DSTT), University of Dundee
Procedure: as §1, §2

PLK1 = target: T4, PLK1 (Homo sapiens, UniProt P53350); assay: Mammalian kinase profiling (DSTT panel); format: biochemical; settings: 10 μM; average percentage of remaining activity
T4 construct: purchased Division of Signal Transduction Therapy (DSTT), University of Dundee
Procedure: as §1, §2

FGF-R1 = target: T5, FGF-R1 (Homo sapiens, UniProt P11362); assay: Mammalian kinase profiling (DSTT panel); format: biochemical; settings: 10 μM; average percentage of remaining activity
T5 construct: purchased Division of Signal Transduction Therapy (DSTT), University of Dundee
Procedure: as §1, §2

RSK1 = target: T6, RSK1 (Homo sapiens, UniProt Q15418); assay: Mammalian kinase profiling (DSTT panel); format: biochemical; settings: 10 μM; average percentage of remaining activity
T6 construct: purchased Division of Signal Transduction Therapy (DSTT), University of Dundee
Procedure: as §1, §2

SGK1 = target: T7, SGK1 (Homo sapiens, UniProt O00141); assay: Mammalian kinase profiling (DSTT panel); format: biochemical; settings: 10 μM; average percentage of remaining activity
T7 construct: purchased Division of Signal Transduction Therapy (DSTT), University of Dundee
T7 sequence (O00141 1-431): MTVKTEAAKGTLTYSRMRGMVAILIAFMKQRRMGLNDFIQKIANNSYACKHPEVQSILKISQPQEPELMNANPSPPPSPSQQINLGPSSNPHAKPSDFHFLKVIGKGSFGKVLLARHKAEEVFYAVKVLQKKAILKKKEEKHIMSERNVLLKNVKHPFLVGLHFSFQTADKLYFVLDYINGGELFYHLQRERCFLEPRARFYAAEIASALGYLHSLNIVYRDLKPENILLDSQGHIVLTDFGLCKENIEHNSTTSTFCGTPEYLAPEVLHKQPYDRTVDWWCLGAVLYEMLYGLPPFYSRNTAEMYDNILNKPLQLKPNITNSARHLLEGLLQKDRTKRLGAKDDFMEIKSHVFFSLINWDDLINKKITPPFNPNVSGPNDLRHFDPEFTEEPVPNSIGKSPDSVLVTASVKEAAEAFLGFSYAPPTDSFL
Procedure: as §1, §2

CHK1 = target: T8, CHK1 (Homo sapiens, UniProt O14757); assay: Mammalian kinase profiling (DSTT panel); format: biochemical; settings: 10 μM; average percentage of remaining activity
T8 construct: purchased Division of Signal Transduction Therapy (DSTT), University of Dundee
Procedure: as §1, §2

PKC zeta = target: T9, PKC zeta (Homo sapiens, UniProt Q05513); assay: Mammalian kinase profiling (DSTT panel); format: biochemical; settings: 10 μM; average percentage of remaining activity
T9 construct: purchased Division of Signal Transduction Therapy (DSTT), University of Dundee
Procedure: as §1, §2

CSK = target: T10, CSK (Homo sapiens, UniProt P41240); assay: Mammalian kinase profiling (DSTT panel); format: biochemical; settings: 10 μM; average percentage of remaining activity
T10 construct: purchased Division of Signal Transduction Therapy (DSTT), University of Dundee
Procedure: as §1, §2

MARK3 = target: T11, MARK3 (Homo sapiens, UniProt P27448); assay: Mammalian kinase profiling (DSTT panel); format: biochemical; settings: 10 μM; average percentage of remaining activity
T11 construct: purchased Division of Signal Transduction Therapy (DSTT), University of Dundee
Procedure: as §1, §2

P38g MAPK = target: T12, P38g MAPK (Homo sapiens, UniProt P53778); assay: Mammalian kinase profiling (DSTT panel); format: biochemical; settings: 10 μM; average percentage of remaining activity
T12 construct: purchased Division of Signal Transduction Therapy (DSTT), University of Dundee
T12 sequence (P53778 1-367): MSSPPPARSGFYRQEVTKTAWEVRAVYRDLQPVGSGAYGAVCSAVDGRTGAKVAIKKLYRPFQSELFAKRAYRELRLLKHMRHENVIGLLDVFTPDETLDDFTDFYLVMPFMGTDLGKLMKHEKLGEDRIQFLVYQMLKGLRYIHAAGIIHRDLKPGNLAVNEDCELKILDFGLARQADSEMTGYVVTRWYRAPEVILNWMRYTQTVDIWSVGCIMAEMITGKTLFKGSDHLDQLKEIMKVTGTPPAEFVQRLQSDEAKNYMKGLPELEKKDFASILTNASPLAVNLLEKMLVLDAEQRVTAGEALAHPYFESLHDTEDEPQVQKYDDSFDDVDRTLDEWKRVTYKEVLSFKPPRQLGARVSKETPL
Procedure: as §1, §2

IKKe = target: T13, IKKe (Homo sapiens, UniProt Q14164); assay: Mammalian kinase profiling (DSTT panel); format: biochemical; settings: 10 μM; average percentage of remaining activity
T13 construct: purchased Division of Signal Transduction Therapy (DSTT), University of Dundee
Procedure: as §1, §2

SYK = target: T14, SYK (Homo sapiens, UniProt P43405); assay: Mammalian kinase profiling (DSTT panel); format: biochemical; settings: 10 μM; average percentage of remaining activity
T14 construct: purchased Division of Signal Transduction Therapy (DSTT), University of Dundee
Procedure: as §1, §2

MST4 = target: T15, MST4 (Homo sapiens, UniProt Q9P289); assay: Mammalian kinase profiling (DSTT panel); format: biochemical; settings: 10 μM; average percentage of remaining activity
T15 construct: purchased Division of Signal Transduction Therapy (DSTT), University of Dundee
Procedure: as §1, §2

IKKb = target: T16, IKKb (Homo sapiens, UniProt O14920); assay: Mammalian kinase profiling (DSTT panel); format: biochemical; settings: 10 μM; average percentage of remaining activity
T16 construct: purchased Division of Signal Transduction Therapy (DSTT), University of Dundee
Procedure: as §1, §2

PKD1 = target: T17, PKD1 (Homo sapiens, UniProt Q15139); assay: Mammalian kinase profiling (DSTT panel); format: biochemical; settings: 10 μM; average percentage of remaining activity
T17 construct: purchased Division of Signal Transduction Therapy (DSTT), University of Dundee
Procedure: as §1, §2

PAK6 = target: T18, PAK6 (Homo sapiens, UniProt Q9NQU5); assay: Mammalian kinase profiling (DSTT panel); format: biochemical; settings: 10 μM; average percentage of remaining activity
T18 construct: purchased Division of Signal Transduction Therapy (DSTT), University of Dundee
Procedure: as §1, §2

Aurora B = target: T19, Aurora B (Homo sapiens, UniProt Q96GD4); assay: Mammalian kinase profiling (DSTT panel); format: biochemical; settings: 10 μM; average percentage of remaining activity
T19 construct: purchased Division of Signal Transduction Therapy (DSTT), University of Dundee
Procedure: as §1, §2

T6 sequence (Q15418 whole entry): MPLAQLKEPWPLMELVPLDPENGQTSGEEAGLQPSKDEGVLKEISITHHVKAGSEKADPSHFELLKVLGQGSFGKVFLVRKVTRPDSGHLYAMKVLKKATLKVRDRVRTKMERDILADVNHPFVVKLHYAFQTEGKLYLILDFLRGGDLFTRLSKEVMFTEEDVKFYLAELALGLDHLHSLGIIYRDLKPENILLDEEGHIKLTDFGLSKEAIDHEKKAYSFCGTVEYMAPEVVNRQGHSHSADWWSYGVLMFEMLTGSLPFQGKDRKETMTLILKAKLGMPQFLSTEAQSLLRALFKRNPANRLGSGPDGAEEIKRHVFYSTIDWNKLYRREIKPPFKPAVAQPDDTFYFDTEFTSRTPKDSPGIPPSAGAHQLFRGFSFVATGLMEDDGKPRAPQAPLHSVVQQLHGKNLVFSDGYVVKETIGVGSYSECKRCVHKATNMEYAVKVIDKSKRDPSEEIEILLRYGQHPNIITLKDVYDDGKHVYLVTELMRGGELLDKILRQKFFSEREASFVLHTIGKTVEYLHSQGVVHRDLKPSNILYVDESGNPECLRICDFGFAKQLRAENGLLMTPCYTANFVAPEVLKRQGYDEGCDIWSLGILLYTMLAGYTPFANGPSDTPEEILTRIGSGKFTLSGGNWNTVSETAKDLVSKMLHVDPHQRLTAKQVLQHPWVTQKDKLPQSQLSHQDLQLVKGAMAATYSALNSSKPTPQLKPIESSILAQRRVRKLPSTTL
Chain of HsGSK3β (P49841 whole entry): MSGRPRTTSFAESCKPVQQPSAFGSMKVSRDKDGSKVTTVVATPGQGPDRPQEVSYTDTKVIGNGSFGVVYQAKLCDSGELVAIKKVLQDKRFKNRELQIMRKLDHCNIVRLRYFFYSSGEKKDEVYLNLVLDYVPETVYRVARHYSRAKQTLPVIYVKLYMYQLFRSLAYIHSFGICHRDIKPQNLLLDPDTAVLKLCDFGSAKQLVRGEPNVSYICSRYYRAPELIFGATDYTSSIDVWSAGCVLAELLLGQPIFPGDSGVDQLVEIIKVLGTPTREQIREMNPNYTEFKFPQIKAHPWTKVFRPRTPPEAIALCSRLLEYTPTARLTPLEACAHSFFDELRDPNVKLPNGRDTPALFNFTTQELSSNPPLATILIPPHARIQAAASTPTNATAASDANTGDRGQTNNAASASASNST
T19 sequence (Q96GD4 whole entry): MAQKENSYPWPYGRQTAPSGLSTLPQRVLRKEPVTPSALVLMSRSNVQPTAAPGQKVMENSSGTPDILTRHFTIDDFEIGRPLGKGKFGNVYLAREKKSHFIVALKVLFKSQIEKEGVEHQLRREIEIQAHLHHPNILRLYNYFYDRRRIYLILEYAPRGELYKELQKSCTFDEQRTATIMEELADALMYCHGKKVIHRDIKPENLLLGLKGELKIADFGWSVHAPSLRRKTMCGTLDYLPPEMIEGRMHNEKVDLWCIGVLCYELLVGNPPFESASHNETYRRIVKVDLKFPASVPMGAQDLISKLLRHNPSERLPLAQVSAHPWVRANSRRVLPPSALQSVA
T10 sequence (P41240 whole entry): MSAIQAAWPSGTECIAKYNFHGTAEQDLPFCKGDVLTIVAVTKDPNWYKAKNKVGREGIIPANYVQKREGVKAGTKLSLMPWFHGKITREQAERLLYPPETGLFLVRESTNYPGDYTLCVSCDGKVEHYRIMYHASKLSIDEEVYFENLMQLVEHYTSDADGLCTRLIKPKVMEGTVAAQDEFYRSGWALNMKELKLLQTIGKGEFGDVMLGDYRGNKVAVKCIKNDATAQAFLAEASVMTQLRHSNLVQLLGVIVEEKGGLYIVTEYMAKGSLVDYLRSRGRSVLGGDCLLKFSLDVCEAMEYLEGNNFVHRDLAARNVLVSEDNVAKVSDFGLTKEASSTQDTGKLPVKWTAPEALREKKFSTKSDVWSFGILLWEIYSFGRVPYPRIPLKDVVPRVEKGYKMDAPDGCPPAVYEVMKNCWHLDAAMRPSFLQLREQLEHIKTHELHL
T11 sequence (P27448 whole entry): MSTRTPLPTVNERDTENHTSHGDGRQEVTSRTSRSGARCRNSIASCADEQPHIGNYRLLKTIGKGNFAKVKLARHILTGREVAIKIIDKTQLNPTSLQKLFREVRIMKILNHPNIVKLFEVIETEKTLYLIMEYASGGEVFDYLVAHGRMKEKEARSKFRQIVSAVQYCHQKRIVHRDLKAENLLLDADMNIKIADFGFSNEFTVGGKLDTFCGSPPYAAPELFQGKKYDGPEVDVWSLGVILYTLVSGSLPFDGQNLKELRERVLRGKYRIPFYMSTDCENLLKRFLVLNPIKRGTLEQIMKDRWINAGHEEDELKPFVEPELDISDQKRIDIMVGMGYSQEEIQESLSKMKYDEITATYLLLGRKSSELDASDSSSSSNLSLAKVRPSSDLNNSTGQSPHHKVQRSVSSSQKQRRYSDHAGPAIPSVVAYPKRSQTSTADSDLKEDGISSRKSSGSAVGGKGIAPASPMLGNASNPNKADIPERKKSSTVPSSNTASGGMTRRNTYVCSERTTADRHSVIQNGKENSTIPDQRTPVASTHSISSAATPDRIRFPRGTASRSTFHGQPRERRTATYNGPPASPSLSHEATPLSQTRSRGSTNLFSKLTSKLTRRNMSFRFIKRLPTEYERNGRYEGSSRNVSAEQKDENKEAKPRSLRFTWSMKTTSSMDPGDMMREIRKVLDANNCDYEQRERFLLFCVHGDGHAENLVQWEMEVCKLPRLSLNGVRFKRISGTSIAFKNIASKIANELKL
T8 sequence (O14757 whole entry): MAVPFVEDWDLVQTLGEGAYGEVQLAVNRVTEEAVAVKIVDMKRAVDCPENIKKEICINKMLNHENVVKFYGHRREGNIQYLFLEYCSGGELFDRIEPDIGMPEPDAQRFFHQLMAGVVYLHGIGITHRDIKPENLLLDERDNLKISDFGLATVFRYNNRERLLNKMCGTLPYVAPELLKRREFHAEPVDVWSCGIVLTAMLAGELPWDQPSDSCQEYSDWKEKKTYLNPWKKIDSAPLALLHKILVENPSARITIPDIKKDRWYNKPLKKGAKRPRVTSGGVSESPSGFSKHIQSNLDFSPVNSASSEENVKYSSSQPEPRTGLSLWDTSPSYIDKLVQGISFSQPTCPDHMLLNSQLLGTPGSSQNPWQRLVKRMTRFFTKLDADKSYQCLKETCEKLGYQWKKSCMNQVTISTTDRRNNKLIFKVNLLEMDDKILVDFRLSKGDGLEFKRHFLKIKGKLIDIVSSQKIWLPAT
T16 sequence (O14920 whole entry): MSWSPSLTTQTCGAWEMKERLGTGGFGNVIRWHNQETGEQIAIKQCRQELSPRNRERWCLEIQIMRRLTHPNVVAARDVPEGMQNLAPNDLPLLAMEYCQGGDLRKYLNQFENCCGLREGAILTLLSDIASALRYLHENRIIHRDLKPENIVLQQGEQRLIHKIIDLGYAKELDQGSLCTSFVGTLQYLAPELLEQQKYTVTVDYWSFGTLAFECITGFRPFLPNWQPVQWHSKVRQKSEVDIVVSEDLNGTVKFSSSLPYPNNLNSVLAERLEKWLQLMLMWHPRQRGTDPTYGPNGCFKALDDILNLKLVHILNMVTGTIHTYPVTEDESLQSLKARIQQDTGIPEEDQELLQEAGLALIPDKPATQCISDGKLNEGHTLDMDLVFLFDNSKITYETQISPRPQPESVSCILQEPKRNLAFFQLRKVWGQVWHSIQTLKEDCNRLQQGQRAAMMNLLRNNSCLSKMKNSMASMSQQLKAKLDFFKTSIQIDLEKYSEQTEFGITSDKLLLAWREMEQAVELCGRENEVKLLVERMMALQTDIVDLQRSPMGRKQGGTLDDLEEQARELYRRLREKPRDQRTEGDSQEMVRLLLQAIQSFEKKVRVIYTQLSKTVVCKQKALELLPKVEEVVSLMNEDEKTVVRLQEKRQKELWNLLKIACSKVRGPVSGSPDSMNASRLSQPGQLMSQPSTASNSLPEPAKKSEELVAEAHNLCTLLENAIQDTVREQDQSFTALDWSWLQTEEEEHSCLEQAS
T4 sequence (P53350 whole entry): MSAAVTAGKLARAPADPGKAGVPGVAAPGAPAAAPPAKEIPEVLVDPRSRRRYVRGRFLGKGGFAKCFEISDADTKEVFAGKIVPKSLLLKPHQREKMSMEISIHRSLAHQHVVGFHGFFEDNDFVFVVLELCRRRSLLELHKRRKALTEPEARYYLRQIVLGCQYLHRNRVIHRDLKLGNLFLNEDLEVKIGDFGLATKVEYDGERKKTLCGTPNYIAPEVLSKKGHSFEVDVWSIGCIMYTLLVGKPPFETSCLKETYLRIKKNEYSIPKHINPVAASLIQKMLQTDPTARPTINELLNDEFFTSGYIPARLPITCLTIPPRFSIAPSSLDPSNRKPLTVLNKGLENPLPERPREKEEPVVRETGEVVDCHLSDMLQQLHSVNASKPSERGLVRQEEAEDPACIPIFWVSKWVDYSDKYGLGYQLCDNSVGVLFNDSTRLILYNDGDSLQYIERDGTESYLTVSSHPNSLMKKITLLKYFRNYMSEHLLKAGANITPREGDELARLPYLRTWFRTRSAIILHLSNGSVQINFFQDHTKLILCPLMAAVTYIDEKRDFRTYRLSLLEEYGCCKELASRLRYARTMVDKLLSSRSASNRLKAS
T2 sequence (Q9HC98 whole entry): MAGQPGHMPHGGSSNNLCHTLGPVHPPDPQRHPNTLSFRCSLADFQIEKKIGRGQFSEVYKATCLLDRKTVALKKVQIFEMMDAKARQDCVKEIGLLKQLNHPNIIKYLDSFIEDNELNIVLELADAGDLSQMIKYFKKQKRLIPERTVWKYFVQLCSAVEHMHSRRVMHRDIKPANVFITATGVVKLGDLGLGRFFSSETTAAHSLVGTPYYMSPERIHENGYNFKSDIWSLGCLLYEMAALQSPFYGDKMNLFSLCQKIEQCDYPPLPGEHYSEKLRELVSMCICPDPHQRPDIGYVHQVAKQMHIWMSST

Structure (SMILES) | IKK activity compared to the control (IKK) [%] | ratio HsGSK3β/TbGSK3 (HsGSK3β) | BRSK2 activity compared to the control (BRSK2) [%] | NEK6 activity compared to the control (NEK6) [%] | Src activity compared to the control (Src) [%] | PLK1 activity compared to the control (PLK1) [%] | FGF-R1 activity compared to the control (FGF-R1) [%] | RSK1 activity compared to the control (RSK1) [%] | SGK1 activity compared to the control (SGK1) [%] | CHK1 activity compared to the control (CHK1) [%] | PKC zeta activity compared to the control (PKC zeta) [%] | CSK activity compared to the control (CSK) [%] | MARK3 activity compared to the control (MARK3) [%] | P38g MAPK activity compared to the control (P38g MAPK) [%] | IKKe activity compared to the control (IKKe) [%] | SYK activity compared to the control (SYK) [%] | MST4 activity compared to the control (MST4) [%] | IKKb activity compared to the control (IKKb) [%] | PKD1 activity compared to the control (PKD1) [%] | PAK6 activity compared to the control (PAK6) [%] | further results
CO[C@H]1CC[C@H](NC(=O)c2n[nH]cc2NC(=O)c2ccccc2)CC1 [Compound 4f, 4-Benzamido-N-(4-methoxycyclohexyl)-1H-pyrazole-3-carboxamide] | 68 | >0.21 | 55 | 100 | 98 | 100 | 99 | 74 | 89 | 100 | 57 | 85 | 84 | 60 | 62 | 78 |  |  |  |  | 
COc1cccc(OC)c1C(=O)Nc1c[nH]nc1C(=O)NC1CCC(OC)CC1 (stereo not drawn) [Compound 4m, 4-(2,6-Dimethoxybenzamido)-N-(4-methoxycyclohexyl)-1H-pyrazole-3-carboxamide] | 90 | <2.5 |  |  |  |  |  | 70 | 92 |  |  |  |  | 72 |  | 100 | 49 | 100 | 59 | 90 | Aurora B activity compared to the control (Aurora B): 87%
CO[C@H]1CC[C@H](NC(=O)c2n[nH]cc2NC(=O)c2ccc(-c3ccccc3)o2)CC1 [Compound 4y, N-(4-Methoxycyclohexyl)-4-(5-phenylfuran-2-carboxamido)-1H-pyrazole-3-carboxamide] | 71 | <0.72 | 60 | 70 | 85 | 99 | 72 | 54 | 81 | 94 | 60 | 73 | 83 | 24 | 46 | 70 | 30 | 36 | 59 | 71 | Aurora B activity compared to the control (Aurora B): 47%
